Target: T1, human PAH with the R408W mutation (Homo sapiens, UniProt P00439, R408W)
T1 construct: expressed in transfected cells
T1 sequence (P00439 1-452 R408W): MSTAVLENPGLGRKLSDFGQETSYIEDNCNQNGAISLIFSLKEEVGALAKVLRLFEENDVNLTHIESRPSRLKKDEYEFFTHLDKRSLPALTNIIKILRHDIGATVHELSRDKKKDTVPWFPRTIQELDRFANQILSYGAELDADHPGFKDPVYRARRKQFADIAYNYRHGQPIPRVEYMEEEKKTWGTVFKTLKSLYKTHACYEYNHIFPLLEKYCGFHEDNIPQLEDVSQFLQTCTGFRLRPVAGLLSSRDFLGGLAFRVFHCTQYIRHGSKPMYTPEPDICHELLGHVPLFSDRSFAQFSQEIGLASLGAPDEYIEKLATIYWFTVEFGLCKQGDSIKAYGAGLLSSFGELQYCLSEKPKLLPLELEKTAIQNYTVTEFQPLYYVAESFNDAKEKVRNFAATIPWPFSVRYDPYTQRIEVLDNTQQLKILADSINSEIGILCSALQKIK
Assay: Cell Based Phenylalanine Flux Assay;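 also: after compound treatment, cells received sepiapterin plus isotope-labelled Phenylalanine for 4 hours, then labelled Tyrosine in the medium was quantified, 10-point 2-fold dilution series run in duplicate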
Settings: A375 cells expressing R408W PAH; 24 hrs with compound, then 20 µM sepiapterin and 800 µM 13C9,15N-Phenylalanine for 4 hours; 13C-Tyrosine by LC-MS; average where tested multiple times; read-out: AC50

AC50 [nM]	Compound
1000 to 5000	CN(C)c1ccc2c(C(=O)N3CCc4[nH]cnc4C3c3cc4cccc(F)n4n3)cnn2c1 (stereo not shown)
1000 to 5000	CC(C)(O)c1nnc(C(=O)N2CCc3[nH]cnc3C2c2cc3c(C(F)F)cccn3n2)o1 (stereo not shown)
1000 to 5000	O=C(c1cnn(-c2ccccn2)c1Cl)N1CCc2[nH]cnc2C1c1cc2ccccn2n1 (stereo not shown)
> 5000	CC(C)(C)c1nnc(N2CCc3[nH]cnc3C2c2cc3cccc(C(F)F)n3n2)o1 (stereo not shown)

Same assay, conditions: A375 cells expressing human PAH R408W; 24 hrs compound incubation; 13C-Tyrosine by LC-MS; average where tested multiple times; read-out: AC50

AC50 [nM]	Compound
500 to 1000	Cc1cccn2nc([C@@H]3c4nc[nH]c4CCN3c3ncc(N)cn3)cc12 [Example 1827, (S)-2-(4-(4-methylpyrazolo[1,5-a]pyridin-2-yl)-6,7-dihydro-1H-imidazo[4,5-c]pyridin-5(4H)-yl)pyrimidin-5-amine]
> 5000	Cc1cccn2nc([C@H]3c4nc[nH]c4CCN3C(=O)c3cnc(-c4cnn(C)c4)o3)cc12 [Example 1961, (R)-(2-(1-methyl-1H-pyrazol-4-yl)oxazol-5-yl)(4-(4-methylpyrazolo[1,5-a]pyridin-2-yl)-1,4,6,7-tetrahydro-5H-imidazo[4,5-c]pyridin-5-yl)methanone]
1000 to 5000	Cn1nc(C(F)(F)F)nc1C(=O)N1CCc2[nH]cnc2[C@@H]1c1cc2c(F)cccn2n1 [Example 2399, (R)-(4-(4-fluoropyrazolo[1,5-a]pyridin-2-yl)-6,7-dihydro-1H-imidazo[4,5-c]pyridin-5(4H)-yl)(1-methyl-3-(trifluoromethyl)-1H-1,2,4-triazol-5-yl)methanone]
< 500	Cc1nnc(C(=O)N2CCc3[nH]cnc3[C@H]2c2cc3c(C(C)C)cccn3n2)o1 [Example 1858, (S)-(4-(4-isopropylpyrazolo[1,5-a]pyridin-2-yl)-1,4,6,7-tetrahydro-5H-imidazo[4,5-c]pyridin-5-yl)(5-methyl-1,3,4-oxadiazol-2-yl)methanone]
500 to 1000	Cc1cccnc1-c1nnc(N2CCc3[nH]cnc3[C@H]2c2cc3cccc(C(F)(F)F)n3n2)o1 [Example 2336, (S)-2-(3-methylpyridin-2-yl)-5-(4-(7-(trifluoromethyl)pyrazolo[1,5-a]pyridin-2-yl)-1,4,6,7-tetrahydro-5H-imidazo[4,5-c]pyridin-5-yl)-1,3,4-oxadiazole]
500 to 1000	Cn1cc(-c2nc(C3CC3)c(C(=O)N3CCc4[nH]cnc4[C@H]3c3cc4c(F)cccn4n3)o2)cn1 [Example 2073, (S)-(4-cyclopropyl-2-(1-methyl-1H-pyrazol-4-yl)oxazol-5-yl)(4-(4-fluoropyrazolo[1,5-a]pyridin-2-yl)-1,4,6,7-tetrahydro-5H-imidazo[4,5-c]pyridin-5-yl)methanone]
> 5000	O=C(c1cnc(-c2cnccn2)o1)N1CCc2[nH]cnc2[C@@H]1c1cc2c(F)cccn2n1 [Example 2517, (R)-(4-(4-fluoropyrazolo[1,5-a]pyridin-2-yl)-1,4,6,7-tetrahydro-5H-imidazo[4,5-c]pyridin-5-yl)(2-(pyrazin-2-yl)oxazol-5-yl)methanone]
> 5000	O=C(c1cnn(CC(F)(F)F)c1C(F)F)N1CCc2[nH]cnc2[C@@H]1c1cc2ccccn2n1 [Example 2369, (R)-(5-(difluoromethyl)-1-(2,2,2-trifluoroethyl)-1H-pyrazol-4-yl)(4-(pyrazolo[1,5-a]pyridin-2-yl)-6,7-dihydro-1H-imidazo[4,5-c]pyridin-5(4H)-yl)methanone]

Same assay, conditions: A375 cells expressing human R408W PAH; 24 hrs compound incubation; 13C-Tyrosine by LC-MS; average where tested multiple times; read-out: AC50

Compound	AC50 [nM]
O=C(c1nnc(-c2cnn(C3CCC3)c2)o1)N1CCc2[nH]cnc2[C@H]1c1cc2c(F)cccn2n1 [Example 832, (S)-(5-(1-cyclobutyl-1H-pyrazol-4-yl)-1,3,4-oxadiazol-2-yl)(4-(4-fluoropyrazolo[1,5-a]pyridin-2-yl)-6,7-dihydro-1H-imidazo[4,5-c]pyridin-5(4H)-yl)methanone]	< 500
O=C(c1nnc(-c2ccn(C(F)F)n2)o1)N1CCc2[nH]cnc2[C@H]1c1cc2cccc(C(F)(F)F)n2n1 [Example 1036, (S)-(5-(1-(difluoromethyl)-1H-pyrazol-3-yl)-1,3,4-oxadiazol-2-yl)(4-(7-(trifluoromethyl)pyrazolo[1,5-a]pyridin-2-yl)-6,7-dihydro-1H-imidazo[4,5-c]pyridin-5(4H)-yl)methanone]	500 to 1000
Cc1ccn2nc([C@H]3c4nc[nH]c4CCN3C(=O)c3ocnc3C(F)F)cc2c1 [Example 1005, (R)-(4-(difluoromethyl)oxazol-5-yl)(4-(5-methylpyrazolo[1,5-a]pyridin-2-yl)-6,7-dihydro-1H-imidazo[4,5-c]pyridin-5(4H)-yl)methanone]	< 500
O=C(c1nnc(-c2ccn(C(F)F)n2)o1)N1CCc2[nH]cnc2[C@H]1c1cc2c(C(F)(F)F)cccn2n1 [Example 909, (S)-(5-(1-(difluoromethyl)-1H-pyrazol-3-yl)-1,3,4-oxadiazol-2-yl)(4-(4-(trifluoromethyl)pyrazolo[1,5-a]pyridin-2-yl)-6,7-dihydro-1H-imidazo[4,5-c]pyridin-5(4H)-yl)methanone]	< 500
Cc1cccc2cc([C@H]3c4nc[nH]c4CCN3C(=O)c3nnc(-c4ccn(C)n4)o3)nn12 [Example 803, (R)-(5-(1-methyl-1H-pyrazol-3-yl)-1,3,4-oxadiazol-2-yl)(4-(7-methylpyrazolo[1,5-a]pyridin-2-yl)-6,7-dihydro-1H-imidazo[4,5-c]pyridin-5(4H)-yl)methanone]	> 5000
O=C(c1ccnn1C(F)(F)F)N1CCc2[nH]cnc2[C@@H]1c1cc2ccccn2n1 [Example 717, (R)-(4-(pyrazolo[1,5-a]pyridin-2-yl)-6,7-dihydro-1H-imidazo[4,5-c]pyridin-5(4H)-yl)(1-(trifluoromethyl)-1H-pyrazol-5-yl)methanone]	500 to 1000
O=C(c1cncs1)N1CCc2[nH]cnc2[C@H]1c1cc2ccccn2n1 [Example 602, (S)-(4-(pyrazolo[1,5-a]pyridin-2-yl)-6,7-dihydro-1H-imidazo[4,5-c]pyridin-5(4H)-yl)(thiazol-5-yl)methanone]	< 500
Cn1nc(Cl)nc1C(=O)N1CCc2[nH]cnc2[C@H]1c1cc2c(Cl)cccn2n1 [Example 1054, (S)-(3-chloro-1-methyl-1H-1,2,4-triazol-5-yl)(4-(4-chloropyrazolo[1,5-a]pyridin-2-yl)-6,7-dihydro-1H-imidazo[4,5-c]pyridin-5(4H)-yl)methanone]	< 500
Cc1ccc2cc([C@@H]3c4nc[nH]c4CCN3C(=O)c3cnco3)nn2c1 [Example 1187, (S)-(4-(6-methylpyrazolo[1,5-a]pyridin-2-yl)-6,7-dihydro-1H-imidazo[4,5-c]pyridin-5(4H)-yl)(oxazol-5-yl)methanone]	1000 to 5000
O=C(c1nnc(-c2ccc(C(F)(F)F)cc2)o1)N1CCc2[nH]cnc2[C@H]1c1cc2ccccn2n1 [Example 642, (S)-(4-(pyrazolo[1,5-a]pyridin-2-yl)-6,7-dihydro-1H-imidazo[4,5-c]pyridin-5(4H)-yl)(5-(4-(trifluoromethyl)phenyl)-1,3,4-oxadiazol-2-yl)methanone]	500 to 1000

Other lines, results leading:

AC50 [nM]	Compound
< 500	Cc1cccn2nc([C@@H]3c4nc[nH]c4CCN3C(=O)c3nnc(-c4ccn(C(F)(F)F)n4)o3)cc12 [Example 1478, (S)-(4-(4-methylpyrazolo[1,5-a]pyridin-2-yl)-6,7-dihydro-1H-imidazo[4,5-c]pyridin-5(4H)-yl)(5-(1-(trifluoromethyl)-1H-pyrazol-3-yl)-1,3,4-oxadiazol-2-yl)methanone]
< 500	FC(F)c1nnc(N2CCc3[nH]cnc3[C@H]2c2cc3c(C(F)(F)F)cccn3n2)o1 [Example 1735, (S)-2-(difluoromethyl)-5-(4-(4-(trifluoromethyl)pyrazolo[1,5-a]pyridin-2-yl)-6,7-dihydro-1H-imidazo[4,5-c]pyridin-5(4H)-yl)-1,3,4-oxadiazole]
1000 to 5000	Cc1c(-c2nnc(C(=O)N3CCc4[nH]cnc4[C@@H]3c3cc4cccc(F)n4n3)o2)cnn1C [Example 1463, (R)-(5-(1,5-dimethyl-1H-pyrazol-4-yl)-1,3,4-oxadiazol-2-yl)(4-(7-fluoropyrazolo[1,5-a]pyridin-2-yl)-6,7-dihydro-1H-imidazo[4,5-c]pyridin-5(4H)-yl)methanone]
< 500	Cc1c(-c2nnc(C(=O)N3CCc4[nH]cnc4[C@H]3c3cc4c(C(F)F)cccn4n3)o2)cnn1C [Example 1348, (S)-(4-(4-(difluoromethyl)pyrazolo[1,5-a]pyridin-2-yl)-6,7-dihydro-1H-imidazo[4,5-c]pyridin-5(4H)-yl)(5-(1,5-dimethyl-1H-pyrazol-4-yl)-1,3,4-oxadiazol-2-yl)methanone]
< 500	O=C(c1cnn2cc(C3CC3)ccc12)N1CCc2[nH]cnc2[C@H]1c1cc2c(C(F)F)cccn2n1 [Example 1742, (S)-(6-cyclopropylpyrazolo[1,5-a]pyridin-3-yl)(4-(4-(difluoromethyl)pyrazolo[1,5-a]pyridin-2-yl)-6,7-dihydro-1H-imidazo[4,5-c]pyridin-5(4H)-yl)methanone]
< 500	Cc1cccn2nc([C@@H]3c4nc[nH]c4CCN3C(=O)c3cnn4cc(-c5ccn(C)n5)ccc34)cc12 [Example 1621, (S)-(6-(1-methyl-1H-pyrazol-3-yl)pyrazolo[1,5-a]pyridin-3-yl)(4-(4-methylpyrazolo[1,5-a]pyridin-2-yl)-6,7-dihydro-1H-imidazo[4,5-c]pyridin-5(4H)-yl)methanone]

Reference: patent US20230365592A1 (Agios Pharmaceuticals, Inc., priority 2022, published 2023)
